# Reference: patent publication US20100048575A1, “NOVEL TETRACYCLIC INHIBITORS OF CYSTEINE PROTEASES, THE PHARMACEUTICAL COMPOSITIONS THEREOF AND THEIR THERAPEUTIC APPLICATIONS” (priority 2006, published 2010)
# Key:
# [1] = target: T1, USP5 (Homo sapiens, UniProt P45974); assay: USP5 activity assay (Ub-AMC); format: biochemical; details: 400 nM Ub-AMC, 300 pM enzyme, 30 min pre-incubation, 60 min at 37° C., sigmoidal fit; read-out: USP5 (inhibition of cysteine protease activity)
# T1 sequence (P45974 1-858): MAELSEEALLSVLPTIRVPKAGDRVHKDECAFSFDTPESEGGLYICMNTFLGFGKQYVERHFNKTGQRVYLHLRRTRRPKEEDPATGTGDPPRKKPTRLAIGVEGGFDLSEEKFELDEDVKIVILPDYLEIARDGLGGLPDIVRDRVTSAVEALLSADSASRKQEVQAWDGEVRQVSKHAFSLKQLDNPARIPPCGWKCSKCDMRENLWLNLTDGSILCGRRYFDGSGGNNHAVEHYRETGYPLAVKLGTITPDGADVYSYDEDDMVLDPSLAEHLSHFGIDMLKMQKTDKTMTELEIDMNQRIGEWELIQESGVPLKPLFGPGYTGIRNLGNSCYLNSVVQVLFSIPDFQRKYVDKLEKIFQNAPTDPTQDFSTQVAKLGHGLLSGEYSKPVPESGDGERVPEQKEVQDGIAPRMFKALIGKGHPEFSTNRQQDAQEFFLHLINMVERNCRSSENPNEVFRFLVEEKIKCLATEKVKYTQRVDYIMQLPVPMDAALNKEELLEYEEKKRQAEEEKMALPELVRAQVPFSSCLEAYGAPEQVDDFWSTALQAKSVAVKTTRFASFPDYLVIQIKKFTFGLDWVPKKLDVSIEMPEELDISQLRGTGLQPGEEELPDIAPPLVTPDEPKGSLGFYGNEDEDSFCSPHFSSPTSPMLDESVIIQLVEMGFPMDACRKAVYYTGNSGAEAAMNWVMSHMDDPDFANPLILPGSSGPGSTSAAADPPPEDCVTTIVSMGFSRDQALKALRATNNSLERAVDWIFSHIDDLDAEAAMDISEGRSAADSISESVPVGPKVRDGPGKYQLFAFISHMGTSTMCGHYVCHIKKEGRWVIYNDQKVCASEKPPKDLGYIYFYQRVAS
# Procedure: USP5 was diluted in USP buffer (50 mM Tris HCl; 0.5 mM EDTA; 5 mM DTT; 0.01% Triton X-100; Bovine Serum Albumin 0.05 mg.ml^−1 pH7.6). Compounds stocks (100 mM) were stored at −20° C. in DMSO.
# Reactions were performed as duplicates in Black LJL 96 well plates (HE microplates; Molecular Devices; 20 μl final reaction volume). The substrate concentration for USP5 was 400 nM Ub-AMC (Boston Biochem). The concentrations of the enzyme (USP5) in specificity assays was 300 pM. The concentrations were determined in order to perform specificity assays under initial velocities at fixed substrate concentration. Compounds were pre-incubated with enzymes for 30 minutes at 25° C. Reactions were initiated by addition of substrate to the plates containing the enzymes (+/−compounds) diluted in assay buffer. Reactions were incubated for 60 minutes at 37° C. Reactions were stopped by adding acetic acid (100 mM final). Readings were performed on a Pherastar Fluorescent Reader (BMG). λ Emission 380 nm; λ Excitation=460 nm. Data (mean values +/−standard deviation) were analyzed as % of control (no compound) and plotted as percentage versus the Log of the compound concentration using GraphPad (Prism). Data were fitted to a sigmoidal model (variable slope).
# [2] = target: Cathepsin B (Homo sapiens, UniProt P07858); assay: Cathepsin B activity assay (z-RR-AMC); format: biochemical; details: 36 μM z-RR-AMC, 3.6 nM enzyme, 30 min pre-incubation, 60 min at 37° C., sigmoidal fit; read-out: cathepB (inhibition of cysteine protease activity)
# Procedure: Cathepsin B was diluted in Cathepsin B buffer (20 mM Tris HCl pH 6.8; 1 mM EDTA; 1 mM DTT). Compounds stocks (100 mM) were stored at −20° C. in DMSO. Compounds were tested at the following final concentrations: 100 μM; 33.3 μM; 11.1 μM; 3.7 μM; 1.23 μM; 412 nM; 137 nM; 45.7 nM; 15.2 nM; 5 nM. Reactions were performed as duplicates in Black LJL 96 well plates (HE microplates; Molecular Devices; 20 μl final reaction volume). The substrate concentration for cathepsin B specificity assay was 36 μM (z-RR-AMC; Calbiochem). The concentration of the enzyme (Cathepsin B) in specificity assays was 3.6 nM. The concentrations were determined in order to perform specificity assays under initial velocities at fixed substrate concentration. Compounds were pre-incubated with enzymes for 30 minutes at 25° C. Reactions were initiated by addition of substrate to the plates containing the enzymes (+/−compounds) diluted in assay buffer. Reactions were incubated for 60 minutes at 37° C. Reactions were stopped by adding acetic acid (100 mM final). Readings were performed on a Pherastar Fluorescent Reader (BMG). δ Emission 380 nm; δ Excitation=460 nm. Data (mean values +/−standard deviation) were analyzed as % of control (no compound) and plotted as percentage versus the Log of the compound concentration using GraphPad (Prism). Data were fitted to a sigmoidal model (variable slope).
IC50 [1],IC50 [2],Compound
1800 nM,2600 nM,"CON=C1c2ccccc2-c2nn3c(C)nnc3nc21 (mixture of isomers) [5a, 3-Methyl-1,2,3a,4,10-pentaaza-cyclopenta[b]fluoren-9-one O-methyl-oxime]"
1150 nM,–,"C=CCON=C1c2ccccc2-c2nn3c(C)nnc3nc21 (mixture of isomers) [5b, 3-Methyl-1,2,3a,4,10-pentaaza-cyclopenta[b]fluoren-9-one O-allyl-oxime]"
1420 nM,6700 nM,"C=CCON=C1c2ccccc2-c2nn3c(CCCC)nnc3nc21 (mixture of isomers) [5d, 3-Butyl-1,2,3a,4,10-pentaaza-cyclopenta[b]fluoren-9-one O-allyl-oxime]"
54000 nM,15800 nM,"CCCCCCCCCCON=C1c2ccccc2-c2nn3nnnc3nc21 (mixture of isomers) [8a, 1,2,3,3a, 4,10-Hexaaza-cyclopenta[b]fluoren-9-one O-decyl-oxime]"
–,2100 nM,"COCCON=C1c2ccccc2-c2nn3nnnc3nc21 (mixture of isomers) [8b, 1,2,3,3a, 4,10-Hexaaza-cyclopenta[b]fluoren-9-one O-(2-methoxy-ethyl)-oxime]"
470 nM,3800 nM,"c1ccc(OCCCON=C2c3ccccc3-c3nn4nnnc4nc32)cc1 (mixture of isomers) [8c, 1,2,3,3a,4,10-Hexaaza-cyclopenta[b]fluoren-9-one O-(3-phenoxy-propyl)-oxime]"
1200 nM,–,"C=CCON=C1c2ccccc2-c2nn3c(CC)nnc3nc21 (mixture of isomers) [10f, 3-Ethyl-1,2,3a,4,10-pentaaza-cyclopenta[b]fluoren-9-one O-allyl-oxime]"
–,300 nM,"C=CCON=C1c2ccccc2-c2nn3nnnc3nc21 (mixture of isomers) [compound 6, 1,2,3,3a,4,10-hexaaza-cyclopenta[b]fluoren-9-one O-allyl-oxime]"
–,890 nM,"ON=C1c2ccccc2-c2nn3nnnc3nc21 (mixture of isomers) [compound 7, 1,2,3,3a,4,10-hexaaza-cyclopenta[b]fluoren-9-one oxime]"
